Experimental data from patent US20140322315A1, “CYSTEAMINE AND/OR CYSTAMINE FOR TREATING ISCHEMIC INJURY” (The Regents of the University of California, priority 2011, published 2014).

Tested on: adiponectin
Test: Serum total and multimeric adiponectin in subjects with NAFLD treated 24 weeks with EC-cysteamine
Type: in vivo, human
Source text: Eleven children ≧10 years, with biopsy-proven NAFLD and an alanine aminotransferase (ALT) level ≧60 IU/L, were enrolled. They were either newly diagnosed or had not received specific therapy for NAFLD such as vitamin E or insulin-sensitizing drugs for at least 3 months before entering the study. All had undertaken standard of care lifestyle changes involving diet and exercise for more than 3 months. The study's primary outcome measure was normalization (≦40 IU/L) or 50% reduction in baseline serum ALT at 24 weeks of EC-cysteamine therapy; these subjects were deemed responders.
Subjects were treated for 24 wks and remained monitored for 24 weeks following its discontinuation. The mean EC-cysteamine dose ingested was 654 mg twice daily or 15.2 mg/kg/day (median dose 900 mg) for 24 wks.
During the pilot study blood was collected at pre-defined intervals. Serum was stored at −80° C. until time of assay. Adequate serum volumes were available in 10 of the 11 subjects with NAFLD and only up to 16 weeks post-treatment.
Total and multimeric adiponectin levels were measured in serum taken from: (1) subject with NAFLD collected at 0 and 24 wks of cysteamine therapy and again 16 wks after stopping therapy (i.e., 40 weeks); (2) pretreated 0-week subjects with NAFLD and adults without NAFLD at room temperature and at 37° C. and also after incubation with cysteamine 90 μM for 1 hour at 37° C.; and (3) pretreated 0-week subjects with NAFLD before and after incubation with cysteamine at varying concentrations (15, 30, 45, 60, 90, 120 μM) for 1 hour at 37° C. to establish dose-response profile.
Sodium dodecyl sulfate polyacrylamide gel electrophoresis (SDS-PAGE) was performed according to standard Laemmli's method. Sample buffer for non-reducing, non-heat denaturing conditions contained 3% SDS; 50 mmol/1 Tris-HCL, pH 6.8 and 20% glycerol. Proteins were separated using 3-8% Tris-Acetate Gels (Invitrogen, Carlsbad Calif.) with Tris-Acetate running buffer per manufacturer instructions. For immunoblotting, proteins were transferred to nitrocellulose membranes. Membranes were washed with Tween (Tris-buffered Saline, 0.1% […]) and incubated with monoclonal antibody (1:500 BD Transduction Laboratories, San Diego, Calif.). After washing with Tris-buffered saline with 0.1% Tween (4×5 min) membranes were incubated with L-COR secondary antibodies (LI-COR Biotechnology, Lincoln Nebr.) at 1:20,000. Adiponectin multimers were detected and quantified using the LICOR imager and software analysis program. Relative distribution of adiponectin multimers was determined by dividing band density by total density (cellular adiponectin) or by total adiponectin as determined by ELISA (Millipore, Billerica, Mass.). The percentage of adionectin multimer was then multiplied by the total adiponectin level to calculate absolute oligomer value.

[1] = after discontinuing therapy at 24 weeks, P=0.01

NCCS.O=C(O)C(O)C(O)C(=O)O (stereo not shown) [cysteamine bitartrate, Cysteamine bitartrate]
mean percent change of HMW adiponectin from baseline (7 responders, 24 weeks): 87.7% | mean percent change of LMW adiponectin from baseline (7 responders, 24 weeks): 33.9% | mean percent change of MMW adiponectin from baseline (7 responders, 24 weeks): 13.7% | mean percent change of total adiponectin from baseline (7 responders, 24 weeks): 57.5% | all adiponectin multimer levels, difference from baseline (40-week timepoint (16 weeks off therapy)): ≤ 2% | LMW adiponectin change between 24-week and 40-week timepoints (after discontinuing therapy at 24 weeks, P=0.009): significant mean percent reduction | MMW adiponectin change between 24-week and 40-week timepoints [1]: significant mean percent reduction | total adiponectin change between 24-week and 40-week timepoints [1]: significant mean percent reduction | HMW adiponectin change between 24-week and 40-week timepoints (after discontinuing therapy at 24 weeks, P=0.02): significant mean percent reduction | mean percent increase of total adiponectin from baseline (all subjects, 0-24 weeks oral EC-cysteamine, P=0.05): 49.3% | mean percent increase of HMW adiponectin from baseline (all subjects, 24 weeks oral EC-cysteamine (15.2 mg/kg/day), P=0.02): 53% | mean percent increase of MMW adiponectin from baseline (all subjects, 24 weeks oral EC-cysteamine, P=0.02): 19% | mean percent increase of LMW adiponectin from baseline (all subjects, 24 weeks oral EC-cysteamine, P=0.03): 29.4%
